From ChEMBL document CHEMBL1155237, “Selective inhibitors of the mutant B-Raf pathway: discovery of a potent and orally bioavailable aminoisoquinoline” (J Med Chem, 2009)

Key:
[1] = target: Serine/threonine-protein kinase 16 (Homo sapiens) (UniProt O75716); test: Inhibition of STK16 assessed as enzyme activity at 1 uM relative to untreated control; parameters: scale not given: the % may be the effect or the level left
[2] = target: Cyclin-dependent kinase 11A (Homo sapiens) (UniProt Q9UQ88); test: Inhibition of CDC2L2 assessed as enzyme activity at 1 uM relative to untreated control; parameters: scale not given: the % may be the effect or the level left
[3] = target: Citron Rho-interacting kinase (Homo sapiens) (UniProt O14578); test: Inhibition of CIT assessed as enzyme activity at 1 uM relative to untreated control; parameters: scale not given: the % may be the effect or the level left
[4] = target: Tyrosine-protein kinase ITK/TSK (Homo sapiens) (UniProt Q08881); test: Inhibition of ITK assessed as enzyme activity at 1 uM relative to untreated control; parameters: scale not given: the % may be the effect or the level left
[5] = system: Epidermal growth factor receptor (Homo sapiens), P00533 [UNDEFINED MUTATION]; test: Inhibition of EGFR L747-S752del, P753S mutant assessed as enzyme activity at 1 uM relative to untreated control; format: protein assay; parameters: scale not given: the % may be the effect or the level left
[6] = target: Serine/threonine-protein kinase NLK (Homo sapiens) (UniProt Q9UBE8); test: Inhibition of NLK assessed as enzyme activity at 1 uM relative to untreated control; parameters: scale not given: the % may be the effect or the level left
[7] = system: Epidermal growth factor receptor (Homo sapiens), P00533 [L858R]; test: Inhibition of EGFR L858R mutant assessed as enzyme activity at 1 uM relative to untreated control; format: protein assay; parameters: scale not given: the % may be the effect or the level left
[8] = target: Protein-tyrosine kinase 6 (Homo sapiens) (UniProt Q13882); test: Inhibition of PTK6 assessed as enzyme activity at 1 uM relative to untreated control; parameters: scale not given: the % may be the effect or the level left
[9] = target: Dual specificity mitogen-activated protein kinase kinase 6 (Homo sapiens) (UniProt P52564); test: Inhibition of MEK6 assessed as enzyme activity at 1 uM relative to untreated control; parameters: scale not given: the % may be the effect or the level left
[10] = target: Serine/threonine-protein kinase Nek1 (Homo sapiens) (UniProt Q96PY6); test: Inhibition of NEK1 assessed as enzyme activity at 1 uM relative to untreated control; parameters: scale not given: the % may be the effect or the level left
[11] = Inhibition of FLT3 ITD assessed as enzyme activity at 1 uM relative to untreated control; parameters: scale not given: the % may be the effect or the level left
[12] = target: Serine/threonine-protein kinase MRCK gamma (Homo sapiens) (UniProt Q6DT37); test: Inhibition of DMPK2 assessed as enzyme activity at 1 uM relative to untreated control; parameters: scale not given: the % may be the effect or the level left
[13] = target: Serine/threonine-protein kinase DCLK2 (Homo sapiens) (UniProt Q8N568); test: Inhibition of DCAMKL2 assessed as enzyme activity at 1 uM relative to untreated control; parameters: scale not given: the % may be the effect or the level left
[14] = target: Receptor-interacting serine/threonine-protein kinase 2 (Homo sapiens) (UniProt O43353); test: Inhibition of RIPK2 assessed as enzyme activity at 1 uM relative to untreated control; parameters: scale not given: the % may be the effect or the level left
[15] = system: Tyrosine-protein kinase ABL1 (Homo sapiens), P00519 [F317I]; test: Inhibition of ABL1 F317I mutant assessed as enzyme activity at 1 uM relative to untreated control; parameters: scale not given: the % may be the effect or the level left
[16] = system: Tyrosine-protein kinase ABL1 (Homo sapiens), P00519 [T315I]; test: Inhibition of ABL1 T315I mutant assessed as enzyme activity at 1 uM relative to untreated control; parameters: scale not given: the % may be the effect or the level left
[17] = system: Mast/stem cell growth factor receptor Kit (Homo sapiens), P10721 [V559D,V654A]; test: Inhibition of KIT V559D,V654A mutant assessed as enzyme activity at 1 uM relative to untreated control; parameters: scale not given: the % may be the effect or the level left
[18] = target: Mitogen-activated protein kinase kinase kinase 4 (Homo sapiens) (UniProt Q9Y6R4); test: Inhibition of MAP3K4 assessed as enzyme activity at 1 uM relative to untreated control; parameters: scale not given: the % may be the effect or the level left
[19] = target: Vascular endothelial growth factor receptor 2 (Homo sapiens, UniProt P35968); test: Inhibition of KDR
[20] = system: eIF-2-alpha kinase GCN2 (Homo sapiens), Q9P2K8 [S808G]; test: Inhibition of GCN2 kinase domain-2 S808G mutant assessed as enzyme activity at 1 uM relative to untreated control; parameters: scale not given: the % may be the effect or the level left
[21] = target: Ribosomal protein S6 kinase alpha-2 (Homo sapiens) (UniProt Q15349); test: Inhibition of RPS6KA2 kinase domain 2 assessed as enzyme activity at 1 uM relative to untreated control; parameters: scale not given: the % may be the effect or the level left
[22] = target: Tyrosine-protein kinase Fer (Homo sapiens) (UniProt P16591); test: Inhibition of FER assessed as enzyme activity at 1 uM relative to untreated control; parameters: scale not given: the % may be the effect or the level left
[23] = target: Dual specificity mitogen-activated protein kinase kinase 4 (Homo sapiens) (UniProt P45985); test: Inhibition of MEK4 assessed as enzyme activity at 1 uM relative to untreated control; parameters: scale not given: the % may be the effect or the level left
[24] = target: MAP kinase-interacting serine/threonine-protein kinase 2 (Homo sapiens) (UniProt Q9HBH9); test: Inhibition of MKNK2 assessed as enzyme activity at 1 uM relative to untreated control; parameters: scale not given: the % may be the effect or the level left
[25] = target: Dual specificity mitogen-activated protein kinase kinase 2 (Homo sapiens) (UniProt P36507); test: Inhibition of MEK2 assessed as enzyme activity at 1 uM relative to untreated control; parameters: scale not given: the % may be the effect or the level left
[26] = target: Proto-oncogene tyrosine-protein kinase ROS (Homo sapiens) (UniProt P08922); test: Inhibition of ROS1 assessed as enzyme activity at 1 uM relative to untreated control; parameters: scale not given: the % may be the effect or the level left
[27] = target: Cyclin-dependent kinase 8 (Homo sapiens) (UniProt P49336); test: Inhibition of CDK8 assessed as enzyme activity at 1 uM relative to untreated control; parameters: scale not given: the % may be the effect or the level left
[28] = target: Serine/threonine-protein kinase Chk2 (Homo sapiens) (UniProt O96017); test: Inhibition of CHEK2 assessed as enzyme activity at 1 uM relative to untreated control; parameters: scale not given: the % may be the effect or the level left
[29] = target: Protein kinase C eta type (Homo sapiens) (UniProt P24723); test: Inhibition of PRKCH assessed as enzyme activity at 1 uM relative to untreated control; parameters: scale not given: the % may be the effect or the level left
[30] = target: Serine/threonine-protein kinase D2 (Homo sapiens) (UniProt Q9BZL6); test: Inhibition of PRKD2 assessed as enzyme activity at 1 uM relative to untreated control; parameters: scale not given: the % may be the effect or the level left
[31] = target: Cyclin-dependent kinase 15 (Homo sapiens) (UniProt Q96Q40); test: Inhibition of PFTAIRE2 assessed as enzyme activity at 1 uM relative to untreated control; parameters: scale not given: the % may be the effect or the level left
[32] = target: Receptor-type tyrosine-protein kinase FLT3 (Homo sapiens) (UniProt P36888); test: Inhibition of FLT3 assessed as enzyme activity at 1 uM relative to untreated control; parameters: scale not given: the % may be the effect or the level left
[33] = target: Platelet-derived growth factor receptor beta (Homo sapiens) (UniProt P09619); test: Inhibition of PDGFRB assessed as enzyme activity at 1 uM relative to untreated control; parameters: scale not given: the % may be the effect or the level left
[34] = target: MAP kinase-activated protein kinase 5 (Homo sapiens) (UniProt Q8IW41); test: Inhibition of MAPKAPK5 assessed as enzyme activity at 1 uM relative to untreated control; parameters: scale not given: the % may be the effect or the level left
[35] = system: A-375; test: Antitumor activity against human A375 SQ2 cells xenografted in CD1 mouse assessed as inhibition of tumor growth at 1 mg/kg, po qd for 14 days; format: functional; details: A-375, 336 h
[36] = Volume of distribution at steady state in CD1 mouse; format: ADME, organism-based; details: in vivo, read-out: Vdss
[37] = target: MAP/microtubule affinity-regulating kinase 4 (Homo sapiens) (UniProt Q96L34); test: Inhibition of MARK4 assessed as enzyme activity at 1 uM relative to untreated control; parameters: scale not given: the % may be the effect or the level left

Sequence of Serine/threonine-protein kinase 16 (Homo sapiens) (O75716 whole entry): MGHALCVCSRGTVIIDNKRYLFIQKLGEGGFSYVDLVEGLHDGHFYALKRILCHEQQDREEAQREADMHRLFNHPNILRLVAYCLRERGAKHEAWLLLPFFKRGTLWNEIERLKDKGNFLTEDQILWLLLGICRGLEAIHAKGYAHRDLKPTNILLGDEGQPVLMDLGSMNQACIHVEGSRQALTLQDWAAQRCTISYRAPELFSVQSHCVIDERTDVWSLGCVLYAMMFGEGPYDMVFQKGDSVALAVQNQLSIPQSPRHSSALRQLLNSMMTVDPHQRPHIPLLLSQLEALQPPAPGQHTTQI
Sequence of Proto-oncogene tyrosine-protein kinase ROS (Homo sapiens) (P08922 whole entry): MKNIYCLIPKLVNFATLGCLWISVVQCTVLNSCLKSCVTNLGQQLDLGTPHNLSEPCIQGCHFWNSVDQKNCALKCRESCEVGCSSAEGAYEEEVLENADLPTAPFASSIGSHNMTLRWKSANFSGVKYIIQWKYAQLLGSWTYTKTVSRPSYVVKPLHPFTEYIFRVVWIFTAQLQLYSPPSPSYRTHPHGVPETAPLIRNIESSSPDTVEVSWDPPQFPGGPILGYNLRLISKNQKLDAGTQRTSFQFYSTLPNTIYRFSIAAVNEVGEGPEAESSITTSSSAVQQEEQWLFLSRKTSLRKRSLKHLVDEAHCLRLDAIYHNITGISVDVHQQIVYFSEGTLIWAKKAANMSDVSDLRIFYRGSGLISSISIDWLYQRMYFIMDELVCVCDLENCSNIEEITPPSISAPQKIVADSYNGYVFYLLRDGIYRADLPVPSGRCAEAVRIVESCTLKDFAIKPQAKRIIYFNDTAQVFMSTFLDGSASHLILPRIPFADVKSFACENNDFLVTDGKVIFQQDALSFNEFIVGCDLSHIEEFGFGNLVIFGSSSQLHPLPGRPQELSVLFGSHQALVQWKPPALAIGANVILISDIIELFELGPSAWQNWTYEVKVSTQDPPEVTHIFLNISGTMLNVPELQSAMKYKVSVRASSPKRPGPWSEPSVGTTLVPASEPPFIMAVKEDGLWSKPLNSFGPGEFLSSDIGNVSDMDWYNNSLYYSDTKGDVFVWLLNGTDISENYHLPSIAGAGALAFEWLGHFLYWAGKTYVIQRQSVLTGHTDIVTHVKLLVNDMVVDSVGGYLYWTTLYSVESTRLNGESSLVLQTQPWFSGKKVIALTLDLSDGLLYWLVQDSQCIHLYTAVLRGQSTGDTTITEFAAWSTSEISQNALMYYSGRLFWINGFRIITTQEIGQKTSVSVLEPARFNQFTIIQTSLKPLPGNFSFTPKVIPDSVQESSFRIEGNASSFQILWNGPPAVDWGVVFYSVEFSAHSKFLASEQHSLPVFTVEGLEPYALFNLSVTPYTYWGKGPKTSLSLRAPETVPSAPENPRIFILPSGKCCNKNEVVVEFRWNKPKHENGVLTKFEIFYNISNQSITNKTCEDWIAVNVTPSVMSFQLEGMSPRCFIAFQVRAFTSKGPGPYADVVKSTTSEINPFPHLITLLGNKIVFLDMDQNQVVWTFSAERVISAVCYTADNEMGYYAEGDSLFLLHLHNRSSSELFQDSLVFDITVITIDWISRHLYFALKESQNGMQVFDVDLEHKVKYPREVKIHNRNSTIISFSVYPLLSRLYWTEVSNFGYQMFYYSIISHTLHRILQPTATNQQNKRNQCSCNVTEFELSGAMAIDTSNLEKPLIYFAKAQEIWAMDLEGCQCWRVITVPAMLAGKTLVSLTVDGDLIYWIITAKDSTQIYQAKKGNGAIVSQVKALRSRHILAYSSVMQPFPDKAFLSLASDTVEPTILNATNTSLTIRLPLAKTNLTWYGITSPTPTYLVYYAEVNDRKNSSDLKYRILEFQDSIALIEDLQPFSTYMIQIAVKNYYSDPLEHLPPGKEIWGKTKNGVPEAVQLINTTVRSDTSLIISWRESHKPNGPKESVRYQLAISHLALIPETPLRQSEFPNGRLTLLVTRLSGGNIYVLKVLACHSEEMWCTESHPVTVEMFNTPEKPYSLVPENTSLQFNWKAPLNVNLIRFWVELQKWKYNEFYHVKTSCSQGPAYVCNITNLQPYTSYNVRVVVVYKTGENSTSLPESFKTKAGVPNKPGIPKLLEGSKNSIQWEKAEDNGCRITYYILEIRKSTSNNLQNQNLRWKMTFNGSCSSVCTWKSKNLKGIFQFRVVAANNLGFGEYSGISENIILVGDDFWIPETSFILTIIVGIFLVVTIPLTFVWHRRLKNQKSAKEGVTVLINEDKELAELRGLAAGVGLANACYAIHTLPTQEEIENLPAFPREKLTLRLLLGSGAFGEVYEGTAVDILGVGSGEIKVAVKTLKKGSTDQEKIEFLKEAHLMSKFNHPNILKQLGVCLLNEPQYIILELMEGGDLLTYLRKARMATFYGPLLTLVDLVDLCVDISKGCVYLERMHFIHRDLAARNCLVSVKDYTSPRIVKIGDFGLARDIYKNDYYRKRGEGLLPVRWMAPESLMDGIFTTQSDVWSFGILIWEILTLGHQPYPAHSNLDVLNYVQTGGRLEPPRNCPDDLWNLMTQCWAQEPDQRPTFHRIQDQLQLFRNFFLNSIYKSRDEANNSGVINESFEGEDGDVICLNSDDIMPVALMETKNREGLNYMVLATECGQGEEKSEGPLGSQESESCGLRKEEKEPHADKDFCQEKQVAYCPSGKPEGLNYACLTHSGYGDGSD
Sequence of Mast/stem cell growth factor receptor Kit (Homo sapiens), P10721 [V559D,V654A] (P10721 whole entry V559D/V654A): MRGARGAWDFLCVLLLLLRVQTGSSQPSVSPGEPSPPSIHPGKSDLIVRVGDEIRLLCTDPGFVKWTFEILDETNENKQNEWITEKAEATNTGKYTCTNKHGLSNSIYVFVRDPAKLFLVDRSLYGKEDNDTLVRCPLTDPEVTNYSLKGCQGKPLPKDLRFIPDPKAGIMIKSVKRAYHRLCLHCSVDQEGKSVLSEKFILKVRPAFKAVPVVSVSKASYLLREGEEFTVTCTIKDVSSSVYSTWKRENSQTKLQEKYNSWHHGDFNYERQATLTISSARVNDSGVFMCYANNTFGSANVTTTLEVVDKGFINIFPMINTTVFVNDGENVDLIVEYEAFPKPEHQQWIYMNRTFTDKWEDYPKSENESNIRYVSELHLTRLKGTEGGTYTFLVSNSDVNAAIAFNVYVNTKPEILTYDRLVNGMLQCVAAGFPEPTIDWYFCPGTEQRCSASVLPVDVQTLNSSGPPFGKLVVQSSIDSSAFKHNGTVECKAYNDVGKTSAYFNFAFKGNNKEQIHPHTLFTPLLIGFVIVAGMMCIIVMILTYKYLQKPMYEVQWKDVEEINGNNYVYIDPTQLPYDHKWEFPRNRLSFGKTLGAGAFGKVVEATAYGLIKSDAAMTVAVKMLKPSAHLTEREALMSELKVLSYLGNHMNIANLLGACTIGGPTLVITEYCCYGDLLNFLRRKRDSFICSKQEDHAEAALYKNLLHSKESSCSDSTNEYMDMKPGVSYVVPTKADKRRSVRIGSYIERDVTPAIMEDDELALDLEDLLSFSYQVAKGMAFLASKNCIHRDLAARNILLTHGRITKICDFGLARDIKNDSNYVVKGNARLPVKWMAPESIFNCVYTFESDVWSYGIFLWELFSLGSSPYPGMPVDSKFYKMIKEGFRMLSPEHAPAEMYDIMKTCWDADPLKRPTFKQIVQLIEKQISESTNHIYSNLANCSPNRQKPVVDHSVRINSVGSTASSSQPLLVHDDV
Sequence of Ribosomal protein S6 kinase alpha-2 (Homo sapiens) (Q15349 whole entry, the tested form may be a part): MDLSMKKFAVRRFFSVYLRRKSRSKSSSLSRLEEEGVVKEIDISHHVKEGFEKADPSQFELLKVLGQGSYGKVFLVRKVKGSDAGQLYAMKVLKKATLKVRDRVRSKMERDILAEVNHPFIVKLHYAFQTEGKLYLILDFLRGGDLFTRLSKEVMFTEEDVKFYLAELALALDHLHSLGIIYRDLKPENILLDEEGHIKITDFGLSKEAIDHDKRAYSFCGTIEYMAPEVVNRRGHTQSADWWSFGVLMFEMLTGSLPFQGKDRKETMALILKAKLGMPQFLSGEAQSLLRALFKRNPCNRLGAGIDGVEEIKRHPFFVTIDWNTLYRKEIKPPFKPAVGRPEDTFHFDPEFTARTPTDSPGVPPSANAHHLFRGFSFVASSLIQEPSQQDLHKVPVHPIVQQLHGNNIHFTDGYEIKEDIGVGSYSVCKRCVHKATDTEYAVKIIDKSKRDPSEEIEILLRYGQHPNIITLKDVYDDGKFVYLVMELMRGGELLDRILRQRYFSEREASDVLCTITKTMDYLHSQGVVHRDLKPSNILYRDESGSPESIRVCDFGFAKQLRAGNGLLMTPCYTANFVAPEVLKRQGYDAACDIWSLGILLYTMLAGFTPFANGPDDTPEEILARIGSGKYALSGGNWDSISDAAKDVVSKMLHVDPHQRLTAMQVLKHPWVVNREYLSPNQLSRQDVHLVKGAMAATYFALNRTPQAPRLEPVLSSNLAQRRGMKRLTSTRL
Sequence of Dual specificity mitogen-activated protein kinase kinase 4 (Homo sapiens) (P45985 whole entry): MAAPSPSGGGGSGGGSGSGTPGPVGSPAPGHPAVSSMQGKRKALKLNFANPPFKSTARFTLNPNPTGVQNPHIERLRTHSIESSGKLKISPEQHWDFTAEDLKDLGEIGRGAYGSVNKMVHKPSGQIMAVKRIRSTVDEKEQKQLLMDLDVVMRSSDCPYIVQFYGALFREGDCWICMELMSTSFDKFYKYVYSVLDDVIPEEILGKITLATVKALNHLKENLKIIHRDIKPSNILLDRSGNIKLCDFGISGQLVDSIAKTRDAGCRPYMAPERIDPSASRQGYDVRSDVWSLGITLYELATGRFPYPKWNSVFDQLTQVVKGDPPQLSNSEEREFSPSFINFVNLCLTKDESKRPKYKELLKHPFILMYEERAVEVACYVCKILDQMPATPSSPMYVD
Sequence of Dual specificity mitogen-activated protein kinase kinase 6 (Homo sapiens) (P52564 whole entry): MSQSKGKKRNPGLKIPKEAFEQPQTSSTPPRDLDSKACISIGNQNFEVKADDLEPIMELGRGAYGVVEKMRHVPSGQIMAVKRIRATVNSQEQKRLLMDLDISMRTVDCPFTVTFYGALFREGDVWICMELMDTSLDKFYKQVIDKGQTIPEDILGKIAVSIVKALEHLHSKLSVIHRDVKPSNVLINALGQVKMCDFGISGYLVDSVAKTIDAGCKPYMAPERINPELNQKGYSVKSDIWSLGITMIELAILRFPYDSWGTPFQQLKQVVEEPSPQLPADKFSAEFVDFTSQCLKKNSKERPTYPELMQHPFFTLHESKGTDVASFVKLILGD

Cc1ccc2c(Nc3ccc(Cl)cc3)nccc2c1Nc1ncccc1-c1ncnc2[nH]cnc12.Cl.Cl.Cl
Activity [1]: 100%
Activity [2]: 33%
Activity [3]: 64%
Activity [4]: 100%
Activity [5]: 94%
Activity [6]: 83%
Activity [7]: 100%
Activity [8]: 13%
Activity [9]: 96%
Activity [10]: 100%
Activity [11]: 92%
Activity [12]: 99%
Activity [13]: 100%
Activity [14]: 100%
Activity [15]: 86%
Activity [16]: 72%
Activity [17]: 100%
Activity [18]: 100%
IC50 [19]: 1 µM
Activity [20]: 100%
Activity [21]: 81%
Activity [22]: 78%
Activity [23]: 93%
Activity [24]: 100%
Activity [25]: 99%
Activity [26]: 72%
Activity [27]: 100%
Activity [28]: 100%
Activity [29]: 100%
Activity [30]: 100%
Activity [31]: 80%
Activity [32]: 62%
Activity [33]: 78%
Activity [34]: 64%
inhibition in vivo at 1 mg/kg [35]: 22%
Vd [36]: 1.1 L/kg
Activity [37]: 100%
